These are literature values, as cited in patent US6908924B2, “N4-acylcytosine-1,3-dioxolane nucleosides for treatment of viral infections” (Pharmasset, Inc., priority 2001, dated 2005).

One data set deals with HIV-1. Particulars: as a reverse transcriptase inhibitor (RTI).
The target of data set [1] is HIV reverse transcriptase (HIV-RT) (Human immunodeficiency virus type 1 group M subtype B, UniProt P04585).

pKi: −log10 of the molar value.

As for `Nc1nc(N)c2ncn([C@H]3CO[C@@H](CO)O3)c2n1` [DAPD, (−)-(2R,4R)-2-amino-9-[(2-hydroxymethyl)-1,3-dioxolan-4-yl]adenine], the “inhibition of HIV-1 replication in vitro” value in the data set with HIV-1 was “selective inhibitor”.

For the compound `Nc1nc2c(ncn2[C@H]2CO[C@@H](COP(=O)(O)OP(=O)(O)OP(=O)(O)O)O2)c(=O)[nH]1` [DXG-TP], the negative-log Ki (pKi) (commonly the Ki on a negative log10 scale, so that one unit is a factor of ten) in data set [1] is 7.72.
